Source: article PMC10955127 (Frontiers in Pharmacology, 2024)
Read-outs that look alike come from different tables or passages of the source.

Experiments:
[1] = In vitro skin penetration and metabolism, fresh viable pig skin on static Franz cells; details: for Total recovery: SA corrected by the amount of SA present in the formulation
From the text: Fresh viable pig skin (without hot steam treatment, by-product from meat industry) was obtained from a local, commercial butcher (Hammoor, Germany). The back skin was from female pigs (bred from “Dänische Landrasse” (female) and Pietrain (male) pigs, ~130 days old, 100 kg body weight). Pig skin samples were gently dry-shaved and washed with water before use. For the experiment, 2 replicate discs from each of 3 donors were used.
Skin of full-thickness was mounted on static Franz cells with a 4.9 cm² application area. The receptor compartment of the diffusion cell was filled with approx. 5 ml RF (1% BSA, 0.9% NaCl, 0.05% gentamycin sulfate in water), above a magnetic stirrer set to low rotation. […] The experiment was conducted using non-occluded conditions.
The dermal absorption was calculated as the total amount present within epidermis (without the amount in the total SC strips), dermis and RF.

[2] = system: Thyroid (TR and TPO only); design: method as in ToxCast; details: ref ToxCast, cited from earlier work; for Thyroid (TR and TPO only): Experimental Data (call): Tier 0
[3] = system: rats; details: highest dose tested; KS2; cited from earlier work
[4] = KS2; cited from earlier work
[5] = system: estrogen receptor; design: method as in ToxCast database; details: ref ToxCast database; cited from earlier work
[6] = system: estrogen receptor; design: method as in ToxCast database; details: ref ToxCast database, cited from earlier work
[7] = system: estrogen receptor; design: method as in ToxCast database; details: ref ToxCast database, cited from earlier work; remark: listed apart in the source
[8] = system: estrogen receptor; design: method as in ToxCast database; details: ref ToxCast database, cited from earlier work; for AC50: read-out: Estrogen pathway Reporter protein Agonist: AC50
[9] = system: estrogen receptor; design: method as in ToxCast database; details: ref ToxCast database; cited from earlier work; remark: listed apart in the source
[10] = system: estrogen receptor; design: method as in ToxCast database; details: ref ToxCast database, cited from earlier work; remark: listed apart in the source
[11] = system: Aromatase; design: method as in ToxCast database; details: ref ToxCast database; cited from earlier work
[12] = system: thyroid pathway; design: method as in ToxCast database; details: ref ToxCast database; cited from earlier work
[13] = system: TSHR; design: method as in ToxCast database; details: ref ToxCast database; cited from earlier work
[14] = system: thyroid pathway; design: method as in ToxCast database; details: ref ToxCast database; cited from earlier work; remark: listed apart in the source
[15] = system: thyroid pathway; design: method as in ToxCast database; details: ref ToxCast database; cited from earlier work; remark: listed apart in the source
[16] = ref PubChem or the ECHA database; cited from earlier work
[17] = in vitro; assay type: in vitro ADME
Protocol: […]. Samples were precipitated with an equal volume of acetonitrile containing internal standards (1 μM diazepam, 1 μM griseofulvin, 10 μM diclofenac) and then centrifuged (4800 x g, room temperature, 5 min) before analysis by UHPLC-MS/HRMS.
The amount of compound in the samples was expressed as percentage of remaining compound compared to time point zero (=100%). These percentages were plotted against the corresponding time points. In vitro intrinsic clearance (CLint) and half-life (t1/2) estimates were determined using the rate of precursor disappearance and following formula, based on the well-stirred liver model (Obach 1999):
t1/2 = half-life [min]; k = slope from the linear regression of log [test compound] versus time plot [1/min]
Where CLint = in vitro intrinsic clearance [μl/min/10^6 cells]; t1/2 = half-life [min]; k = slope of the linear regression of log [test compound] versus time plot [1/min]; V = ratio of incubation volume and cell number and fu = unbound fraction in the blood. […]

[18] = system: estrogen receptor (ER); details: cited from earlier work; for Estrogen: Experimental Data (call): Tier 0; for Estrogen: Experimental Data (call) / Estrogen: assays active / assays: ref ToxCast
[19] = system: androgen receptor (AR); design: method as in ToxCast; details: ref ToxCast, cited from earlier work
[20] = system: androgen receptor; design: method as in ToxCast database; details: ref ToxCast database; cited from earlier work
[21] = system: androgen receptor; design: method as in ToxCast database; details: ref ToxCast database; cited from earlier work; remark: listed apart in the source
[22] = system: androgen receptor; design: method as in ToxCast database; details: ref ToxCast database; cited from earlier work; remark: listed apart in the source
[23] = system: androgen receptor; design: method as in ToxCast database; details: ref ToxCast database; cited from earlier work; remark: listed apart in the source
[24] = system: mice; details: KS2; cited from earlier work
[25] = design: method as in SCCS, 2023a; details: frozen human skin, 14C-radio-labelled BSal in a formulation at 0.5%; ref SCCS, 2023a; cited from earlier work
[26] = 24.14 mg/kg/day product, 0.5% BSal, 10.5% absorption
[27] = design: method as in PubChem or the ECHA database; details: at 25°C; ref PubChem or the ECHA database; cited from earlier work
[28] = system: H295R cell line; design: method as in ToxCast database; details: ref ToxCast database, cited from earlier work
[29] = system: H295R cell line; design: method as in ToxCast database; details: ref ToxCast database, cited from earlier work; remark: listed apart in the source
[30] = system: H295R cell line; design: method as in ToxCast database; details: ref ToxCast database, cited from earlier work; remark: listed apart in the source
[31] = system: THRa; design: method as in ToxCast database; details: ref ToxCast database; cited from earlier work
[32] = in vivo; details: human
[33] = ref PubChem or the ECHA database; cited from earlier work; remark: listed apart in the source
[34] = at 35°C; ref PubChem or the ECHA database; cited from earlier work
[35] = Fraction unbound in the plasma (Fup); details: human
[36] = design: method as in ToxCast database; details: ref ToxCast database; cited from earlier work
[37] = system: MCF-7 cells; assay type: cell-based; details: 1,000 µM SA or 1 μM trichostatin A, analysis Method 1
[38] = 24 h after application of 0.5% BSal in formulation
[39] = 24 h after application of 0.5% BSal in formulation, mean ± SD, n = 6

O=C(O)c1ccccc1 [BA, benzoic acid]
Dermal absorption of individual analytes ([1]; 24 h, epidermis + dermis + receptor fluid): 1.2 ± 0.7 percentage of the applied dose
Total recovery [1, 38]: 19.8 ± 17.2 percentage of the applied dose
Dermis [1, 39]: 1.2 ± 0.7 percentage of the applied dose
Epidermis [1, 39]: < LOQ*
Receptor fluid [1, 39]: < LOQ*
Stratum corneum [1, 39]: 16.8 ± 16.3 percentage of the applied dose
Surface ([1]; 24 h after application of 0.5% BSal in formulation, mean ± SD, n = 6 skin discs (three donors)): 1.7 ± 1.2 percentage of the applied dose
Thyroid (TR and TPO only): Experimental Data (call) [2]: Negative
Thyroid (TR and TPO only): assays active / assays [2]: 0/12 active
Reproductive toxicity NOAEL [3]: NOAEL 900 mg/kg bw (highest dose tested)
Developmental Toxicity NOAEL [4]: NOAEL 1306 mg/kg bw
Estrogen pathway receptor binding: Call [5]: Negative
Estrogen pathway Dimerisation: Call [6]: Negative
Estrogen pathway mRNA induction: Call [7]: Negative
Estrogen pathway Reporter protein Agonist: Call [8]: Positive
AC50 [8]: 7.54 µM
Estrogen pathway Reporter protein Antagonist: Call [9]: Negative
Estrogen pathway Cell Proliferation: Call [10]: Negative
Steroidogenesis Aromatase: Call [11]: Negative
Thyroid pathway mRNA induction: Call [12]: Negative
Thyroid pathway Regulation of transcription factor activity (TSHR): Call [13]: Negative
Thyroid pathway Reporter protein Agonist: Call [14]: Negative
Thyroid pathway Reporter protein Antagonist: Call [15]: Negative
Vapor pressure [16]: 0.1 Pa

OCc1ccccc1 [BAlc, benzyl alcohol]
Stratum corneum [1]: < LOQ*
Surface [1]: < LOQ*
Time within which rapidly metabolized in PHH ([17]; both, human, hepatocytes, 5 µM): ≤ 30 min
Estrogen: Experimental Data (call) [18]: Negative
Estrogen: assays active / assays [18]: 0/18 active
Androgen: Experimental Data (call) ([19]; Tier 0): Negative
Androgen: assays active / assays [19]: 0/14 active
Thyroid (TR and TPO only): Experimental Data (call) [2]: Negative
Thyroid (TR and TPO only): assays active / assays [2]: 0/12 active
Estrogen pathway Dimerisation: Call [6]: Negative
Estrogen pathway mRNA induction: Call [7]: Negative
Estrogen pathway Reporter protein Agonist: Call [8]: Negative
Estrogen pathway Reporter protein Antagonist: Call [9]: Negative
Androgen pathway Dimerisation: Call [20]: Negative
Androgen pathway mRNA induction: Call [21]: Negative
Androgen pathway Reporter protein Agonist: Call [22]: Negative
Androgen pathway Reporter protein Antagonist: Call [23]: Negative
Steroidogenesis Aromatase: Call [11]: Negative
Thyroid pathway mRNA induction: Call [12]: Negative
Thyroid pathway Regulation of transcription factor activity (TSHR): Call [13]: Negative
Thyroid pathway Reporter protein Agonist: Call [14]: Negative
Thyroid pathway Reporter protein Antagonist: Call [15]: Negative
Vapor pressure [16]: 7 Pa
Developmental Toxicity NOAEL [24]: NOAEL: 200 mg/kg

O=C(OCc1ccccc1)c1ccccc1O [BSal, benzyl salicylate]
Receptor fluid [1]: < LOQ*
Initial concentration detected ([17]; after 90, 120, and 240 min): 0.1%–0.2%
Initial concentration remaining ([17]; after 30 min, 20 µM BSal): 10%
half-life at 20 µM ([17]; both sexes, human, hepatocytes, 20 µM, 0.8 million cells/ml, read-out: Half-life in PHH): 9.2 min
hepatocyte CLint at 20 µM ([17]; both sexes, human, hepatocytes, PHH, read-out: In vitro intrinsic clearance (CLint, in vitro)): 94.2 µL/min/1e6 cells
Skin absorption [25]: 9.01 % of the applied dose
SED total [26]: 24.14 × 0.5/100 × 10.5/100 = 0.01267 mg/kg/d
Estrogen: Experimental Data (call) [18]: Positive
AC50 ([18]; binding assay for ERα, assay name OT_ER_ERaERa_0480, ref ToxCast database, read-out: Lowest reported AC50): 36.5 µM
Estrogen: assays active / assays [18]: 9 out of 18
Estrogen: assays active / assays ([18]; listed as Benzyl salicylate): 9/18 assays active
Thyroid (TR and TPO only): Experimental Data (call) [2]: Negative
Thyroid (TR and TPO only): assays active / assays [2]: 0/11 active
pKa [27]: 9.82
Estrogen pathway Dimerisation: Call [6]: Positive
AC50 ([6]; read-out: Estrogen pathway Dimerisation: AC50): 36.5 µM
Estrogen pathway mRNA induction: Call [7]: Positive
AC50 ([7]; read-out: Estrogen pathway mRNA induction: AC50): 37 µM
Estrogen pathway Reporter protein Agonist: Call [8]: Positive
AC50 [8]: 39.2 µM
Estrogen pathway Reporter protein Antagonist: Call [9]: Negative
Estrogen pathway Cell Proliferation: Call [10]: Positive
AC50 ([10]; read-out: Estrogen pathway Cell Proliferation: AC50): 85.2 µM
Steroidogenesis Aromatase: Call [11]: Negative
Steroidogenesis Corticosterone in H295R cell line: call [28]: Positive
AC50 ([28]; read-out: Steroidogenesis Corticosterone in H295R cell line: AC50): 36.8 µM
Steroidogenesis 17alpha-hydroxyprogesterone in H295R cell line: call [29]: Positive
AC50 ([29]; read-out: Steroidogenesis 17alpha-hydroxyprogesterone in H295R cell line: AC50): 54.7 µM
Steroidogenesis Progesterone in H295R cell line: call [30]: Positive
AC50 ([30]; read-out: Steroidogenesis Progesterone in H295R cell line: AC50): 43.7 µM
Thyroid pathway receptor binding (THRa): Call [31]: Negative
Thyroid pathway mRNA induction: Call [12]: Negative
Thyroid pathway Regulation of transcription factor activity (TSHR): Call [13]: Negative
Thyroid pathway Reporter protein Agonist: Call [14]: Negative
Thyroid pathway Reporter protein Antagonist: Call [15]: Negative
NOAEL [32]: 123 mg/kg/day
Water solubility [33]: 8800 µg/mL
Partition coefficient (Log Pow) [34]: 4
Vapor pressure [16]: 0.01 Pa
fraction unbound [35]: 0.0066

O=Cc1ccccc1 [Benzaldehyde, benzaldehyde]
Total recovery [1, 38]: < LOQ*

O=C(O)CNC(=O)c1ccccc1 [Hippuric acid, hippuric acid]
Receptor fluid [1]: < LOQ*
Surface [1]: < LOQ*
Result in all 259 ToxCast assays [36]: SA: alerts for developmental toxicity, reproductive toxicity, nephrotoxicity, hepatotoxicity, Hippuric acid: negative in all 259 ToxCast assays
Steroidogenesis Aromatase: Call [11]: Negative
Thyroid pathway Reporter protein Agonist: Call [14]: Negative
Thyroid pathway Reporter protein Antagonist: Call [15]: Negative

CC(/C=C/C(=O)NO)=C\[C@@H](C)C(=O)c1ccc(N(C)C)cc1 [trichostatin A, Trichostatin A]
Number of genes altered by > 1.5-fold or < -1.5-fold ([37]; 6 h): ~10,000 genes
Number of genes altered by > 1.5-fold or < -1.5-fold ([37]; 24 h): ~10,000 genes
